From ChEMBL document CHEMBL5634110, “Applications of oxetanes in drug discovery and medicinal chemistry” (Eur J Med Chem, 2023)
Converted amounts (≈) assume the structure as drawn. Values belong to the compound of their own block, whether it stands above or below them.

What was measured:
[1] = system: Human orthopneumovirus; test: Antiviral activity against RSV type B assessed as viral growth inhibition; format: functional, organism-based; conditions: human respiratory syncytial virus
[2] = Apparent permeability of compound in phosphate buffer by PAMPA assay; format: ADME
[3] = Oral bioavailability in rat at 2 mg/kg; format: ADME, organism-based; conditions: in vivo
[4] = Oral bioavailability in monkey at 5 mg/kg; format: ADME, organism-based, Macaca mulatta; conditions: rhesus monkey, in vivo
[5] = molecular target: T1, Developmentally-regulated GTP-binding protein 1 (Homo sapiens, UniProt Q9Y295); test: Inhibition of DRG1 (unknown origin)
T1 sequence (Q9Y295 whole entry): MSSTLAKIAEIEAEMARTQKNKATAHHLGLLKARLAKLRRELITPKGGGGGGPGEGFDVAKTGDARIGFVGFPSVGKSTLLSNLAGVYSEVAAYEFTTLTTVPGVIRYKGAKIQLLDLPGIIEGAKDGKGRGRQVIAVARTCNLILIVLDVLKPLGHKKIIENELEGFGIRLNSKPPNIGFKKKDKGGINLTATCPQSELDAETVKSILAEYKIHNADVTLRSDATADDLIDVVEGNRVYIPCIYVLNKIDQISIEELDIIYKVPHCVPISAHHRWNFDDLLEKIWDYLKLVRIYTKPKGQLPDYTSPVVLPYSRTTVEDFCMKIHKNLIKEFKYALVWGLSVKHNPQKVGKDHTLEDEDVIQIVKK

[6] = Half life in iv dosed rat; format: ADME, organism-based; conditions: in vivo
[7] = Solubility of compound in PBS at pH 7.4; format: physicochemical
[8] = Oral bioavailability in rat; format: ADME, organism-based; conditions: in vivo
[9] = AUC in iv dosed rat; format: ADME, organism-based; conditions: in vivo
[10] = Intrinsic clearance in rat liver microsomes; format: ADME, Microsome
[11] = Intrinsic clearance in human liver microsomes; format: ADME, Microsome; conditions: read-out: CLH
[12] = molecular target: Hepatitis C virus NS5B RNA-dependent RNA polymerase (Hepatitis C virus, UniProt Q8JXU8); test: Inhibition of Hepatitis C virus NS5B polymerase; set-up: species or system Hepacivirus hominis
[13] = Metabolic stability in mouse liver microsomes assessed as half life at 1 uM incubated for 60 mins by LC-MS/MS analysis; format: ADME, Microsome
[14] = Kinetic solubility of compound in PBS buffer at 500 uM incubated for 18 hrs by HPLC analysis; format: physicochemical; conditions: read-out: Kinetic_solubility
[15] = system: Z-138; test: Growth inhibition of human Z138 cells; format: functional
[16] = Metabolic stability in rat liver microsomes assessed as half life at 1 uM incubated for 60 mins by LC-MS/MS analysis; format: ADME, Microsome
[17] = Metabolic stability in human liver microsomes assessed as half life at 1 uM incubated for 60 mins by LC-MS/MS analysis; format: ADME, Microsome
[18] = molecular target: Collagenase 3 (Homo sapiens, UniProt P45452); test: Binding affinity to full length human recombinant MMP-13 using Mca-PLGL-Dpa-AR-NH2 as fluorogenic peptide substrate assessed as inhibition constant
[19] = Inhibition of GST fused Bcl-xL (unknown origin) incubated for 5 min by TR-FRET assay; set-up: species or system Homo sapiens
[20] = molecular target: Apoptosis regulator Bcl-2 (Homo sapiens, UniProt P10415); test: Inhibition of Bcl-2 (unknown origin) by fluorescence polarization assay
[21] = Tmax in rat at 5 mg/kg, po; format: ADME, organism-based; conditions: in vivo
[22] = AUC (0 to 24 hrs) in rat at 5 mg/kg, po; format: ADME, organism-based; conditions: in vivo
[23] = Intrinsic clearance in mouse liver microsomes; format: ADME, Microsome; conditions: read-out: CLH
[24] = Solubility of compound at pH 6.8; format: physicochemical; conditions: buffer

Sequence of Apoptosis regulator Bcl-2 (P10415 whole entry): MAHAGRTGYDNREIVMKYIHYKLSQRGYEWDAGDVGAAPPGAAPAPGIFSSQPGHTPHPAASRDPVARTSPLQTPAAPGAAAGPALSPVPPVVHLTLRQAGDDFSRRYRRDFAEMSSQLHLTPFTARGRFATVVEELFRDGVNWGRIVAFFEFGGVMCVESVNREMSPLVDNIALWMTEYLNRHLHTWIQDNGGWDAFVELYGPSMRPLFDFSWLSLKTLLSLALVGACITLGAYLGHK
Sequence of Hepatitis C virus NS5B RNA-dependent RNA polymerase (Q8JXU8 whole entry): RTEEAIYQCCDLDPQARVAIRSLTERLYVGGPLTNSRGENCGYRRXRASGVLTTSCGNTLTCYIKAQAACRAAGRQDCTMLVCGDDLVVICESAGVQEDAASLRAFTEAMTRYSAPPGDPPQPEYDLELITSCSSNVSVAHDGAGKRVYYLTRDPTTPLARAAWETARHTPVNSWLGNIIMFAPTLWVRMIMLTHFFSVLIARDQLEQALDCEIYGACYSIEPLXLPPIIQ

Structure (SMILES): O=C(NC1CC1)c1cc2c(s1)-c1ccccc1N(C(=O)c1ccc(NC(=O)c3cccnc3N3CCC4(CC3)COC4)cc1)CC2
- EC50 [1]: > 100 µM

Structure (SMILES): COC(C)(C)C#Cc1cnc2c(c1)[C@]1(COC(N)=N1)c1cc(-c3cccnc3F)ccc1O2
- Papp [2]: 120 nm/s

Structure (SMILES): CC(C)(O)C#Cc1cnc2c(c1)[C@]1(COC(N)=N1)c1cc(-c3cccnc3F)ccc1O2
- Papp [2]: 110 nm/s
- bioavailability [3]: 70%
- bioavailability [4]: 101%

Structure (SMILES): CC(=O)N1CCC(c2cc(Nc3cc(C#N)ccn3)nc(N3CCC(F)(F)C3)c2)CC1
- IC50 [5]: 0.18 µM

Structure (SMILES): COC(=O)Nc1nc2cc(C(=O)c3ccc(N(C)C4COC4)cc3)ccc2[nH]1
- half-life [6]: 5.5 h
- solubility [7]: 0.137 mg/mL (≈ 360 µM)
- bioavailability [8]: 73.1%
- AUC [9]: 0.469 µg·h/mL

Structure (SMILES): CC1(C)CCC(c2ccc(Cl)cc2)=C(CN2CCN(c3ccc(C(=O)NS(=O)(=O)c4ccc(OCC5(CN6CC(F)(F)C6)COC5)c(S(=O)(=O)C(F)(F)F)c4)cc3)CC2)C1
- IC50 [19]: 0.105 µM
- IC50 [20]: 0.0173 µM

Structure (SMILES): CC1(C)CCC(c2ccc(Cl)cc2)=C(CN2CCN(c3ccc(C(=O)NS(=O)(=O)c4ccc(N[C@H](CCN5CCOCC5)CSc5ccccc5)c(S(=O)(=O)C(F)(F)F)c4)cc3)CC2)C1 [NAVITOCLAX]
- IC50 [19]: 0.0082 µM

Further lines, with some results ahead:

- CLH [10]: 12 µL/min/mg
- microsomal CLint [11]: 12 µL/min/mg
Structure (SMILES): COc1cc(C(F)(F)F)ccc1COc1cccc(N2C=NN(Cc3nc4c(F)cc(C(=O)O)cc4n3C[C@@H]3CCO3)CC2)n1

- microsomal CLint [11]: 6 µL/min/mg
Structure (SMILES): COc1cc(C#N)ccc1COc1cccc(N2C=NN(Cc3nc4c(F)cc(C(=O)O)cc4n3C[C@@H]3CCO3)CC2)n1

- IC50 [12]: 10 µM
Structure (SMILES): Nc1nc2c(ncn2[C@@H]2O[C@H](COP(=O)(O)OP(=O)(O)OP(=O)(O)O)[C@@H](O)[C@@]23CCO3)c(=O)[nH]1

- half-life at 1 µM [13]: 1.58 h
- solubility kinetic at 18 h, 500 µM [14]: 32.7 µM (≈ 17.1 µg/mL)
- half-life at 1 µM [16]: 1.67 h
- half-life at 1 µM [17]: 1.1 h
- Ki [18]: 0.0103 µM
Structure (SMILES): CC(C)[C@H](NC(=O)c1ccc(-c2ccc(CNc3nc4c(c(=O)[nH]3)CCC4)c(F)c2)o1)C(=O)NC1COC1
- GI50 [15]: 0.02 µM

- half-life at 1 µM [13]: 1.73 h
- solubility kinetic at 18 h, 500 µM [14]: 76.4 µM (≈ 39.9 µg/mL)
- half-life at 1 µM [16]: 1.03 h
- half-life at 1 µM [17]: 1.02 h
- Ki [18]: 0.0122 µM
Structure (SMILES): CC(C)[C@H](NC(=O)c1ccc(-c2ccc(CCc3nc4c(c(=O)[nH]3)CCC4)c(F)c2)o1)C(=O)NC1COC1

- Tmax [21]: 1 h
- AUC(0-t) [22]: 49.1 µg·h/mL
Structure (SMILES): CO[C@H]1C[C@@H](C)C/C(C)=C/[C@@H](C/C=C/C2(O)COC2)C(=O)C[C@H](O)[C@@H](C)[C@@H](/C(C)=C/[C@@H]2CC[C@@H](O)[C@H](OC)C2)OC(=O)[C@@H]2CCCCN2C(=O)C(=O)[C@]2(O)O[C@H]1[C@@H](OC)C[C@H]2C

- Tmax [21]: 1 h
- AUC(0-t) [22]: 2.49 µg·h/mL
- microsomal CLint [23]: 306 µL/min/mg
- solubility [24]: 28 µM (≈ 22.5 µg/mL)
Structure (SMILES): C=CC[C@@H]1/C=C(\C)C[C@H](C)C[C@H](OC)[C@H]2O[C@@](O)(C(=O)C(=O)N3CCCC[C@H]3C(=O)O[C@H](/C(C)=C/[C@@H]3CC[C@@H](O)[C@H](OC)C3)[C@H](C)[C@@H](O)CC1=O)[C@H](C)C[C@@H]2OC [TACROLIMUS ANHYDROUS]
